Data: patent US20260132103A1, “Bumetanide Derivatives for the Therapy of Stroke and Other Neurological Diseases/Disorders Involving NKCCs” (University of Pittsburgh - Of the Commonwealth System of …, priority 2018, published 2026)

Assays:
[1] = test system: transient focal cerebral ischemia (tMCAO) in mice; assay: Body weight and survival 1-14 days after tMCAO; format: in vivo, mouse
Method: (§1) FIGS. 1A-1C: Efficacy of NKCC1 inhibitors in reducing ischemic infarction, cerebral edema, and the post-stroke survival in normotensive mice after tMCAO (see Example 3). (1A) Experimental protocol and data collection. Transient middle cerebral artery occlusion (tMCAO) was induced in normal C57/b6 mice. DMSO, BMT (10 mg/kg body weight), STS5 (13 mg/kg) or STS66 (12 mg/kg) was administered via intraperitoneal injection (i.p.) as described in method. (1 B) Representative TTC staining images in normotensive mice at 24 h reperfusion with quantitative analysis of infarct volume. Data are mean±SD, n=6-13 (male, n=3-9; female, n=3-4, *p<0.05). Scale: 5 mm. (1C) Percentage hemisphere swelling at 24 h reperfusion. Data are mean±SD, n=6-13, *p<0.05. (1D) Body weight change during 1-14 days after tMCAO. Data are mean±SD, n=5-9 (male, n=4; female, n=2, *p<0.05). (1E) Survival curve during 1-14 day after tMCAO. Data are mean±SD, n=5-9 (male, n=3-7; female, n=2, *p<0.05).
(§2) Transient focal cerebral ischemia was induced in mice by intraluminal occlusion of the left middle cerebral artery (MCA) for 50 min as described previously (Chen H et al., 2005). Mice were anesthetized with 3% isoflurane in 70%: 30% N2O/O2 until they were unresponsive to the tail pinch test. Animals were then fitted with a nose cone blowing 1.5% isoflurane for anesthesia maintenance. The left common carotid artery was exposed and the occipital artery branches of the external carotid artery were isolated and coagulated. The internal carotid artery was isolated and the extracranial branch was dissected and ligated. A rubber silicon-coated monofilament suture (6-0) was introduced into the internal carotid artery lumen and gently advanced approximately 8-9 mm to block the MCA blood flow for 50 min. The rectal temperature was maintained at 37.0±0.5° C. during surgery through a temperature-controlled heating pad. Achievement of ischemia was confirmed by monitoring regional cerebral blood flow (rCBF) with laser speckle contrast imager (Pericam). For reperfusion, the suture was withdrawn after the MCAO. The incision was closed and the mouse recovered under a heating lamp to maintain the core temperature (36.0-37.0° C.) during the 30-60 min recovery period. After recovery, animals were returned to their cages with free access to food and water.
(§3) Vehicle: DMSO (2 ml/kg body weight/day), the NKCC1 inhibitor bumetanide (BMT, 10 mg/kg body weight/day in DMSO), bumetanide's prodrug STS5 (13 mg/kg body weight/day in DMSO), or the novel NKCC1 inhibitor STS66 according to the invention (12 mg/kg body weight/day in DMSO) was administered via intraperitoneal injection (i.p). The initial half dose of the drugs (BMT, STS5, STS66) was given at 3 h after the onset of reperfusion and the second half dose at 8 h reperfusion in the tMCAO model.

[2] = test system: transient focal cerebral ischemia (tMCAO) in mice; assay: Brain infarct volume and swelling after transient focal cerebral ischemia (tMCAO); format: in vivo, mouse; conditions: 24 h reperfusion, i.p.
Method: as §1, §2, §3
At 24 h post-reperfusion, mice were anesthetized with 5% isoflurane and then decapitated. Coronal brain slices (2 mm thickness) were stained with 1% 2,3,5-triphenyltetrazolium chloridemonohydrate (TTC) for 20-30 min and brain slices were scanned (Begum G et al., 2015). Ischemic lesions were traced in each slice in a blinded manner, and the total volume of infarction was calculated with correction for edema, as described by Swanson et al., 1990 using ImageJ software. Infarct areas were summed across all slices and multiplied by slice thickness to yield total infarct volume (mm^3). Brain swelling was determined with the following formula. For tMCAO: swelling (% contralateral hemispheric volume)=[(ipsilateral hemispheric volume)−(contralateral hemispheric volume)]/(contralateral hemispheric volume)×100, as described before (Guo Q G et al., 2009; Sunghee Cho et al., 2005).

CCCCNc1cc(C(=O)OCCN(C)C)cc(S(N)(=O)=O)c1Oc1ccccc1 [STS5]
body weight changes ([1]; 1-14 days after tMCAO, versus DMSO Veh control): no differences in the body weight changes
mortality rate ([1]; between 1-14 days post tMCAO, BMT 10, STS5 13, STS66 12 mg/kg/day i.p.): ~66.7%
infarct volume in female mice ([2]; female mice only, STS5 13, STS66 12 mg/kg/day): 46.9±5.0 mm^3
hemispheric edema (hemisphere swelling) ([2]; normotensive C57BL/6j mice, half dose at 3 h and 8 h reperfusion, BMT 10, STS5 13, STS66 12 mg/kg/day, mean±SD): 12.6±4.5%
infarct volume ([2]; normotensive C57BL/6j mice, male and female combined, half dose at 3 h and 8 h reperfusion, BMT 10, STS5 13, STS66 12 mg/kg/day, mean±SD): 49.5±20.6 mm^3
